The source of these data is article PMC7479175, “Selection of Potent Inhibitors of Soluble Epoxide Hydrolase for Usage in Veterinary Medicine” (Frontiers in Veterinary Science, 2020).

In general, inhibition refers to the drop in the measured response relative to a control, in per cent. What is called IC50 is the point on the concentration scale where inhibition reaches its midpoint.

Like-named read-outs stand apart in the source and are kept apart here.

Assay type in all cases: biochemical
In test [1] the target is T1, Horse sEH (Equus caballus, UniProt F7C407). Nature of the test: Secondary screen (kinetic mode), PHOME substrate. The following applies: [I] = 100 nM, secondary kinetic mode screening; read-out: Horse sEH Inhibition (%) S.
T1 sequence (F7C407 entry or part of it): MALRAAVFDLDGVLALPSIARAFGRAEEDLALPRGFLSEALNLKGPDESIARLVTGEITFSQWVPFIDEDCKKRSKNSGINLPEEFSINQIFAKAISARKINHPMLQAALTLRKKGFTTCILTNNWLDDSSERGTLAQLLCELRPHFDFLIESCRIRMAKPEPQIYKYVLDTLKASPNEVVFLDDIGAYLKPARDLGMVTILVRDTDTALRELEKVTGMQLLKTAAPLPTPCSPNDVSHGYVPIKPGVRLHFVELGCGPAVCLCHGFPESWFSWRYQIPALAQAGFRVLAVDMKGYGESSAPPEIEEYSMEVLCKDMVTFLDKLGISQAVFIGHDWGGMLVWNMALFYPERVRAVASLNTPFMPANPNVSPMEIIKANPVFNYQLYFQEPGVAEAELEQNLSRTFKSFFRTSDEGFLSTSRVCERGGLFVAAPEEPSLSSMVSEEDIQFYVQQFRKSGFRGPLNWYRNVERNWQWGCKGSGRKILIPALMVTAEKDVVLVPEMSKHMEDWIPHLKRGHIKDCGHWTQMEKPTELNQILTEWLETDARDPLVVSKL
Test [2] has as its target T1, Horse sEH. As to conditions: CMNPC ([S]final = 5 μM) as substrate; average ± standard deviation (n = 3). As to the method:
(§1) The sEH activity from the cat, dog and horse liver was further purified to eliminate contaminating esterase activity that could interfere with the screening fluorescent assay ([16]). The cytosolic fraction was loaded on a Q-Sepharose column (100 mL) equilibrated with sodium phosphate buffer (20 mM pH 7.4). After washing of the bound proteins, the sEH activity was eluted with a step gradient of NaCl (0–1 M). The fractions containing the sEH activity were pooled and concentrated using a Centriprep-30. The concentrates were aliquoted and flash frozen, then kept frozen at −80°C until usage. […] Protein concentration was quantified using the Pierce BCA assay (Pierce, Rockford, IL), using Fraction V bovine serum albumin (BSA) as the calibrating standard.
(§2) The IC50 values reported herein were determined using either a fluorescent based assay (CMNPC as substrate) for purified enzyme preparations or a radioactive based assay ([^3H]t-DPPO as substrate) for crude enzyme preparations ([20]). The fluorescent assay was used with the purified proteins. […] The substrate (CMNPC) was then added ([S]final = 5 μM). […] The radioactive […] assay was used with the liver crude extracts. […]

The target in a further test is T2, Dog sEH (Canis lupus familiaris, UniProt A0A8I3NJL8).
T2 sequence (A0A8I3NJL8 1-556): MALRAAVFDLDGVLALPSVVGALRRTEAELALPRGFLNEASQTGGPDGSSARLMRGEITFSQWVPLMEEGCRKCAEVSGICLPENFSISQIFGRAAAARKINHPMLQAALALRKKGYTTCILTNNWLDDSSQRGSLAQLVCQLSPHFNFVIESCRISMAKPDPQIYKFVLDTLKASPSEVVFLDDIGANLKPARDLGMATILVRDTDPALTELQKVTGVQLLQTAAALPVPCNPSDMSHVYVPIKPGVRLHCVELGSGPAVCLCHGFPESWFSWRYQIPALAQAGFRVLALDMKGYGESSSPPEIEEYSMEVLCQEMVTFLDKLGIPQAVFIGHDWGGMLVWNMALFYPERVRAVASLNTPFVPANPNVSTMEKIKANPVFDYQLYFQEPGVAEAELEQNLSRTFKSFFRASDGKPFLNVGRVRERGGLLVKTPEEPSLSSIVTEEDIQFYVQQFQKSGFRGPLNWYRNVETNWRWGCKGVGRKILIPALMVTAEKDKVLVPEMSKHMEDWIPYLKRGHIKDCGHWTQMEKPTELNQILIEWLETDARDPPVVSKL
Nature of the test: sEH inhibition potency (IC50), fluorescent assay with CMNPC, partially purified enzyme. The following applies: CMNPC ([S]final = 5 μM) as substrate; average ± standard deviation (n = 3). As to the method:
as §1, §2

Test [3] concerns the target T3, sEH activity from liver cytosol of Hamster (Mesocricetus auratus, UniProt A0A1U7QV09).
T3 sequence (A0A1U7QV09 1-554): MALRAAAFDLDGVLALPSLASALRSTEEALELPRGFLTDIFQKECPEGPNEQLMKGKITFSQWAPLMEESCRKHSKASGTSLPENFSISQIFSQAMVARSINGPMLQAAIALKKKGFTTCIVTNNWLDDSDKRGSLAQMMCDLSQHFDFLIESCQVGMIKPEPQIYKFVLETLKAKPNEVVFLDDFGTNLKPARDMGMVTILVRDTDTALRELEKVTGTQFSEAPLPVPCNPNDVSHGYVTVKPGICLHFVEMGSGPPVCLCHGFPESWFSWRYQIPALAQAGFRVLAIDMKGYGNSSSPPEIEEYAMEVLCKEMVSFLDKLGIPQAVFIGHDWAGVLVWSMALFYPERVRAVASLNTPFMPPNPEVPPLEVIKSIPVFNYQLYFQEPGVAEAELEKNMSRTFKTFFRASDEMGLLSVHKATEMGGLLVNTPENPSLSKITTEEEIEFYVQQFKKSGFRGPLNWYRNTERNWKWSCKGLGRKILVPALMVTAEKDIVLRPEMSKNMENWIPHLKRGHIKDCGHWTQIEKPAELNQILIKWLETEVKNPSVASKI
Nature of the test: sEH inhibition potency (IC50), radioactive assay with [3H]t-DPPO, liver cytosol. As to conditions: [3H]t-DPPO ([S]final = 5 μM) as substrate. The source says:
(§3) Fresh liver tissues samples (5–30 g) were collected promptly after death from healthy adult cat, dog and horse euthanized for reasons unrelated to this study, and whose bodies were given to science by the owners in line with federal regulations and protocol approved by the Institutional Animal Care and Use Committee at University of California Davis. Similarly, tissues from the other animals tested herein were collected from healthy animals immediately after being slaughter at the university abattoir. Because no animals were directly used or killed for this study, sample collections were exempted from approval by the Institutional Animal Care and Use Committee of the University of California Davis and Michigan State University. […] The tissues were flash-frozen in liquid nitrogen following removal, and then kept at −80°C until used. After thawing on ice, the samples were homogenized in chilled sodium phosphate buffer (20 mM pH 7.4) containing 5 mM EDTA, 1 mM DTT and 1 mM PMSF (tissue weight:buffer volume ratio 1:4). These homogenates were centrifuged at 100,000 g for 60 min at 4°C. The supernatant (the cytosolic fraction) was separated from the pellet, aliquoted and flash frozen in liquid nitrogen, then kept frozen at −80°C until usage.
(§4) The IC50 values reported herein were determined using either a fluorescent based assay (CMNPC as substrate) for purified enzyme preparations or a radioactive based assay ([^3H]t-DPPO as substrate) for crude enzyme preparations ([20]). The fluorescent assay was used with the purified proteins. […] The substrate (CMNPC) was then added ([S]final = 5 μM). […] The radioactive […] assay was used with the liver crude extracts. Extracts were incubated with inhibitors ([I]final = 1–1,000 nM) at 30° C for 5 min in sodium phosphate buffer (pH 7.4) containing 0.1 mg/mL of BSA and 1% of DMSO, prior to substrate introduction ([^3H]t-DPPO [S]final: 50 μM; ~12,000 dpm/assay). The enzymes were incubated at 30°C for 10 min, and the reaction was quenched by the addition of 60 μL methanol and 200 μL isooctane, which extracts the remaining epoxide from the aqueous phase. […] Assays were performed in triplicate.

Test [4] concerns the target sEH activity from liver cytosol of Sheep (Ovis aries, UniProt A0ACI6PZ20). The description is as above.
Description: as §3, §4

For test [5], the target named is T4, Cat sEH (Felis catus, UniProt A0ABI7ZL20). Put plainly: Secondary screen (kinetic mode), PHOME substrate. The following applies: read-out: Cat sEH Inhibition (%) S.
T4 sequence (A0ABI7ZL20 entry or part of it): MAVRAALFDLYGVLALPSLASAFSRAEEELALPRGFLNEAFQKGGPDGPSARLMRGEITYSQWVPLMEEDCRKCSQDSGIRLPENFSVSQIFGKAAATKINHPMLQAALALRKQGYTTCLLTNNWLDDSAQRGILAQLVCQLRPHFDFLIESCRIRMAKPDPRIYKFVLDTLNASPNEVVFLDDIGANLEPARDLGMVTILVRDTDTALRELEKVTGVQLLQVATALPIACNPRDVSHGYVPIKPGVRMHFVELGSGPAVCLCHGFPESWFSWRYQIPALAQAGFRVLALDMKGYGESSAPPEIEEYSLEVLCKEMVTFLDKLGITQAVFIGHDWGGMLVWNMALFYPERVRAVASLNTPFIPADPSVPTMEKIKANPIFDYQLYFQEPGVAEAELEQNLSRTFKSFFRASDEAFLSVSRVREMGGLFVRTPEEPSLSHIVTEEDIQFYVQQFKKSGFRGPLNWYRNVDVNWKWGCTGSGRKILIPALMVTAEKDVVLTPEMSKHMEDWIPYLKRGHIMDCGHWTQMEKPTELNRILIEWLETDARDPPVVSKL
For test [6], the target named is T4, Cat sEH. Nature of the test: sEH inhibition potency (IC50), fluorescent assay with CMNPC, partially purified enzyme. The following applies: CMNPC ([S]final = 5 μM) as substrate; average ± standard deviation (n = 3).
Description: The IC50 values reported herein were determined using either a fluorescent based assay (CMNPC as substrate) for purified enzyme preparations or a radioactive based assay ([^3H]t-DPPO as substrate) for crude enzyme preparations ([20]). The fluorescent assay was used with the purified proteins. […] The substrate (CMNPC) was then added ([S]final = 5 μM). […] Assays were performed in triplicate.
Where [7] appears, read: [3H]t-DPPO ([S]final = 5 μM) as substrate, read-out: IC50 (nM) Sheep.

Chain of sEH activity from liver cytosol of Sheep (A0ACI6PZ20 entry or part of it): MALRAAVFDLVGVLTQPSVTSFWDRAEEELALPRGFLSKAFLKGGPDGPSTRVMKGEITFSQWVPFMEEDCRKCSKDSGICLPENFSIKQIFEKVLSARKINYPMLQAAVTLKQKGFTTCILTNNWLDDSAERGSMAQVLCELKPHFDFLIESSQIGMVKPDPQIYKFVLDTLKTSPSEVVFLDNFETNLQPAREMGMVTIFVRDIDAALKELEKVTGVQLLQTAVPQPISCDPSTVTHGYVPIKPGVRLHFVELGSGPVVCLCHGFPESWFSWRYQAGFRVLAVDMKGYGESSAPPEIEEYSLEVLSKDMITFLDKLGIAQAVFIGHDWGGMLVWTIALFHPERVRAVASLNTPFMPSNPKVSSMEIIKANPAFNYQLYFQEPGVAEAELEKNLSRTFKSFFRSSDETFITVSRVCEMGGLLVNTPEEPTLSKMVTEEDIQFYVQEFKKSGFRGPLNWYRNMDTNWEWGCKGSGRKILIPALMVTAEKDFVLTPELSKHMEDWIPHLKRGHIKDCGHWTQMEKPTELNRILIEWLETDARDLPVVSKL

Consider `N#CNC(=O)CCCCCCCCCCCNC(=O)NC12CC3CC(CC(C3)C1)C2` [1,845], for which the inhibition at 0.1 µM at Horse sEH [1] was 88%; at Cat sEH [5], 104%. Besides, the IC50 on Horse sEH [2] is 0.4 ± 0.01 nM; against Dog sEH it was 0.6 ± 0.04 nM; in test [3], 34 nM; in test [4] (setting [7]), 7 nM; at Cat sEH [6], 0.4 ± 0.01 nM.
With `O=C(Nc1ccc(OC(F)(F)F)cc1)N[C@H]1CC[C@H](Oc2ccc(C(=O)O)cc2)CC1` [1,728, trans-4-{4-[3-(4-trifluoromethoxy-phenyl)-ureido]-cyclohexyloxy}-benzoic acid], the concentration for half-maximal inhibition (IC50) in test [3] was 5 nM; in test [4] (read-out: IC50 (nM) Sheep, [3H]t-DPPO ([S]final = 5 μM) as substrate) it was 6 nM.
In the case of `O=C(NCCCCOc1ccc(F)cc1)NC12CC3CC(CC(C3)C1)C2` [1,707], the figures for the inhibition at 0.1 µM on Horse sEH [1] and on Cat sEH [5] were 87% and 99%, respectively. Besides, the IC50 at Horse sEH [2] came to 0.5 ± 0.03 nM; on Dog sEH, 0.9 ± 0.1 nM; in test [3] it was 2 nM; in test [4] (setting [7]) it was 2 nM; on Cat sEH [6] it was 0.5 ± 0.02 nM.
